pIC50: −log10 of the molar value.
Key:
Assay type in all cases: biochemical
GST-PLK1 = GST-PLK1 (Homo sapiens, UniProt P53350); experiment: PLK TR-FRET peptide assay, PLK1; conditions: read-out: Plk1 IC50
GST-PLK3 = target: T1, GST-PLK3 (Homo sapiens, UniProt Q9H4B4); experiment: PLK TR-FRET peptide assay, PLK3; conditions: PLK TR-FRET peptide assay, GST-PLK3; read-out: Plk3 IC50
T1 construct: purchased CarnaBio

GST-PLK2 = target: T2, GST-PLK2 (Homo sapiens, UniProt Q9NYY3); experiment: PLK TR-FRET peptide assay, PLK2; conditions: for pIC50: PLK TR-FRET peptide assay, GST-PLK2, read-out: Plk2 IC50; for PLK2 activity relative to the opposite enantiomer / other isomer: comparison of resolved enantiomers, used to assign absolute configuration
T2 construct: purchased CarnaBio
T2 sequence (Q9NYY3 whole entry): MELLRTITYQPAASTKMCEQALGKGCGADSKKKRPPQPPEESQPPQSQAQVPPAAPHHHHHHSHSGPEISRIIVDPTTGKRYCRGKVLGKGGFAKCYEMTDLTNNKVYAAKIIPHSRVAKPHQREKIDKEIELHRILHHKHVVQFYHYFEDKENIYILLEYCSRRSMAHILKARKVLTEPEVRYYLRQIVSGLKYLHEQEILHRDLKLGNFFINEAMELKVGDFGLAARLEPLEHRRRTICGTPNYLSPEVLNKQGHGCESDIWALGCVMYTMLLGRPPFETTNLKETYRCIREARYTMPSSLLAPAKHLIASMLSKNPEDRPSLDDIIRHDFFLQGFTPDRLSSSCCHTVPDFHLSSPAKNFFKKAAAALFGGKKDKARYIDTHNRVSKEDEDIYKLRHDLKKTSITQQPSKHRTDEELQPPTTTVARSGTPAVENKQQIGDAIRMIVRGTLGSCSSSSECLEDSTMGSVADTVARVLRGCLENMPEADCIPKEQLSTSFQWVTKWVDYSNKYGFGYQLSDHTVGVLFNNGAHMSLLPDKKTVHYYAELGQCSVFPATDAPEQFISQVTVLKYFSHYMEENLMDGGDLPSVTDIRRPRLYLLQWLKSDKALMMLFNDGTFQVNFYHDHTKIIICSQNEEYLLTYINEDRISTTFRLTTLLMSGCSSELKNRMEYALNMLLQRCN

GST-PLK1, sequence (P53350 whole entry): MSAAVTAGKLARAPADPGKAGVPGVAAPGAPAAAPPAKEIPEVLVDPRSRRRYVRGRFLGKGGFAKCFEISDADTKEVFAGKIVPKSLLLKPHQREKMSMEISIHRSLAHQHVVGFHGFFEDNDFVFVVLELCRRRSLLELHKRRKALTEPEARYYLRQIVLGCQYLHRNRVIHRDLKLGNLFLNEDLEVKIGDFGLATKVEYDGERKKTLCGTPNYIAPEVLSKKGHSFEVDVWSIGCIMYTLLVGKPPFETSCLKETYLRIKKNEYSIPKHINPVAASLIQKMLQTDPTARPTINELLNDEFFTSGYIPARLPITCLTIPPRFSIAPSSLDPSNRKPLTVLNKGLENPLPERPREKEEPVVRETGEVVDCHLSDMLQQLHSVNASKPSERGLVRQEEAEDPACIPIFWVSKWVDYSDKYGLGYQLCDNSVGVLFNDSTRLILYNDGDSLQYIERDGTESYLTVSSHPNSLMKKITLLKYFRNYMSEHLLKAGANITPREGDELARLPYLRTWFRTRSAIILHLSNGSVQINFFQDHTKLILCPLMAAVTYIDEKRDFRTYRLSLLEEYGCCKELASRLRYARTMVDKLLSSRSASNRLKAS
T1 sequence (Q9H4B4 whole entry): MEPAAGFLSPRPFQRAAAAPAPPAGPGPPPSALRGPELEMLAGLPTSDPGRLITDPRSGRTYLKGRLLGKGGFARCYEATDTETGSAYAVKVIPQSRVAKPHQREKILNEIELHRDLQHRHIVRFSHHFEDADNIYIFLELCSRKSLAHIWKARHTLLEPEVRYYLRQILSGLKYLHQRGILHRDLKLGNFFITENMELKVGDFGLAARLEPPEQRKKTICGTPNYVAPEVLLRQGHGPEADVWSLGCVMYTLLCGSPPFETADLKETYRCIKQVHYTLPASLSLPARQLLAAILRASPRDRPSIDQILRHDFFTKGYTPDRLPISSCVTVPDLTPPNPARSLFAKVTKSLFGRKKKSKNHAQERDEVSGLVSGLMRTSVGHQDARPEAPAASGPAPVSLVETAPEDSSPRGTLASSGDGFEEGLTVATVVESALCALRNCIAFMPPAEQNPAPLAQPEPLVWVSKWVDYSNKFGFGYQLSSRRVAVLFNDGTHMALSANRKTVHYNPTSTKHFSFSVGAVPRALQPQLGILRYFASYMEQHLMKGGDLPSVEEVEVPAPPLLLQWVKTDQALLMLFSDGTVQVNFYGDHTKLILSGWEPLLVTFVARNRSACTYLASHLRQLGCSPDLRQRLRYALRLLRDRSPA

SMILES | pIC50 (GST-PLK1) | pIC50 (GST-PLK3) | pIC50 (GST-PLK2) | PLK2 activity relative to the opposite enantiomer / other isomer (GST-PLK2)
CC[C@@H]1C(=O)N(C)c2cnc(-n3cnc(CC#N)c3)nc2N1C1CCCC1 [Example 35, (R)-2-(1-(8-cyclopentyl-7-ethyl-5-methyl-6-oxo-5,6,7,8-tetrahydropteridin-2-yl)-1H-imidazol-4-yl)acetonitrile] | 5.00 to 6.00 | 4.30 to 5.00 | > 6.00 | 
CC[C@@H]1C(=O)N(C)c2cnc(-n3cnc(C(=O)O)c3)nc2N1C1CCCC1 [Example 37, (R)-1-(8-cyclopentyl-7-ethyl-5-methyl-6-oxo-5,6,7,8-tetrahydropteridin-2-yl)-1H-imidazole-4-carboxylic acid] | > 6.00 | > 6.00 | > 6.00 | 
CC[C@@H]1C(=O)N(C)c2cnc(-n3ccnc3-c3nccs3)nc2N1C1CCOCC1 [Example 157, (R)-7-ethyl-5-methyl-8-(tetrahydro-2H-pyran-4-yl)-2-(2-(thiazol-2-yl)-1H-imidazol-1-yl)-7,8-dihydropteridin-6(5H)-one] | 5.00 to 6.00 | 4.30 to 5.00 | > 6.00 | 
CC[C@@H]1C(=O)N(C)c2cnc(-n3ccnc3)nc2N1C(C)C [Example 22, (R)-7-ethyl-2-(1H-imidazol-1-yl)-8-isopropyl-5-methyl-7,8-dihydropteridin-6(5H)-one] | 5.00 to 6.00 | < 4.30 | > 6.00 | 
CC[C@@H]1CC[C@@]2(CC)C(=O)N(C)c3cnc(-n4ccnc4-c4ccccc4)nc3N12 [Example 309, (6aS,9R)-6a,9-diethyl-5-methyl-2-(2-phenyl-1H-imidazol-1-yl)-6a,7,8,9-tetrahydropyrrolo[2,1-h]pteridin-6(5H)-one] | > 6.00 | > 6.00 | > 6.00 | 
CC[C@@H]1C(=O)N(C)c2cnc(-n3ccc(C(=O)O)n3)nc2N1C1CCCC1 [Example 56, (R)-1-(8-cyclopentyl-7-ethyl-5-methyl-6-oxo-5,6,7,8-tetrahydropteridin-2-yl)-1H-pyrazole-3-carboxylic acid] | 5.00 to 6.00 | 4.30 to 5.00 | > 6.00 | 
CC[C@@H]1C(=O)N(C)c2cnc(-c3cnoc3-c3ccccc3)nc2N1C1CCCC1 [Example 133, (R)-8-cyclopentyl-7-ethyl-5-methyl-2-(5-phenylisoxazol-4-yl)-7,8-dihydropteridin-6(5H)-one] | > 6.00 | > 6.00 | > 6.00 | 
CC[C@@H]1C(=O)N(C)c2cnc(-n3ncnc3-c3ccccc3)nc2N1C1CCCC1 [Example 135, (R)-8-cyclopentyl-7-ethyl-5-methyl-2-(5-phenyl-1H-1,2,4-triazol-1-yl)-7,8-dihydropteridin-6(5H)-one] | > 6.00 | > 6.00 | > 6.00 | 
CC[C@@H]1C(=O)N(C)c2cnc(-c3cn[nH]c3-c3ccccc3)nc2N1C1CCCC1 [Example 134, (R)-8-cyclopentyl-7-ethyl-5-methyl-2-(5-phenyl-1H-pyrazol-4-yl)-7,8-dihydropteridin-6(5H)-one] | > 6.00 | > 6.00 | > 6.00 | 
CC[C@@H]1C(=O)N(C)c2cnc(-c3cncnc3-c3ccccc3)nc2N1C1CCCC1 [Example 132, (R)-8-cyclopentyl-7-ethyl-5-methyl-2-(4-phenylpyrimidin-5-yl)-7,8-dihydropteridin-6(5H)-one] | > 6.00 | > 6.00 | > 6.00 | 
CC[C@@]12COCCN1c1nc(-n3ccnc3-c3ccccc3)ncc1N(C)C2=O (single isomer, unassigned) [Example 314] | < 4.30 | 5.00 to 6.00 | > 6.00 | 
CC[C@@H]1C(=O)N(C)c2cnc(-n3ccnc3)nc2N1C1CCC1 [Example 111, (R)-8-cyclobutyl-7-ethyl-2-(1H-imidazol-1-yl)-5-methyl-7,8-dihydropteridin-6(5H)-one] | 5.00 to 6.00 | 4.30 to 5.00 | > 6.00 | 
CC[C@@H]1C(=O)N(C)c2cnc(-n3ccnc3-c3ccccn3)nc2N1C(C)C [Example 153, (R)-7-ethyl-8-isopropyl-5-methyl-2-(2-(pyridin-2-yl)-1H-imidazol-1-yl)-7,8-dihydropteridin-6(5H)-one] | 5.00 to 6.00 | 5.00 to 6.00 | > 6.00 | 
CC[C@@H]1C(=O)N(C)c2cnc(-n3ccc(C(N)=O)n3)nc2N1C1CCCC1 [Example 63, (R)-1-(8-cyclopentyl-7-ethyl-5-methyl-6-oxo-5,6,7,8-tetrahydropteridin-2-yl)-1H-pyrazole-3-carboxamide] | 5.00 to 6.00 | 5.00 to 6.00 | > 6.00 | 
CC[C@@]12CCCN1c1nc(-n3ccnc3-c3ccncc3)ncc1N(C)C2=O [Example 101, (S)-6a-ethyl-5-methyl-2-(2-(pyridin-4-yl)-1H-imidazol-1-yl)-6a,7,8,9-tetrahydropyrrolo[2,1-h]pteridin-6(5H)-one] | 4.30 to 5.00 | 4.30 to 5.00 | > 6.00 | 
CC[C@@H]1C(=O)N(C)c2cnc(-n3ccnc3-c3cncnc3)nc2N1C(C)C [Example 149, (R)-7-ethyl-8-isopropyl-5-methyl-2-(2-(pyrimidin-5-yl)-1H-imidazol-1-yl)-7,8-dihydropteridin-6(5H)-one] | 4.30 to 5.00 | 4.30 to 5.00 | > 6.00 | 
CCC1C(=O)Nc2cnc(-n3ccnc3-c3ccccc3)nc2N1NC(=O)OC(C)(C)C (stereo not drawn) [Example 274, tert-Butyl 7-ethyl-6-oxo-2-(2-phenyl-1H-imidazol-1-yl)-6,7-dihydropteridin-8(5H)-ylcarbamate] | < 4.30 | < 4.30 | < 4.30 | 

Next, values leading:

pIC50 (GST-PLK1) | pIC50 (GST-PLK3) | pIC50 (GST-PLK2) | PLK2 activity relative to the opposite enantiomer / other isomer (GST-PLK2) | SMILES
< 4.30 | < 4.30 | 5.00 to 6.00 |  | CC[C@@H]1C(=O)N(C)c2cnc(-n3ccnc3-c3ccc(F)cc3)nc2N1C1COC1 [Example 328, (R)-7-ethyl-2-(2-(4-fluorophenyl)-1H-imidazol-1-yl)-5-methyl-8-(oxetan-3-yl)-7,8-dihydropteridin-6(5H)-one]
< 4.30 | < 4.30 | < 4.30 |  | CC[C@]12COCCN1c1nc(-c3cnoc3-c3ccccc3)ncc1N(C)C2=O [Example 414, (R)-6a-ethyl-5-methyl-2-(5-phenylisoxazol-4-yl)-6a,7,9,10-tetrahydro-[1,4]oxazino[3,4-h]pteridin-6(5H)-one]
> 6.00 | 5.00 to 6.00 | > 6.00 |  | CC[C@@H]1C(=O)N(C)c2cnc(-n3ncnc3-c3ccn[nH]3)nc2N1C(C)C [Example 327, (R)-2-(5-(1H-pyrazol-5-yl)-1H-1,2,4-triazol-1-yl)-7-ethyl-8-isopropyl-5-methyl-7,8-dihydropteridin-6(5H)-one]
< 4.30 | < 4.30 | 4.30 to 5.00 |  | CC[C@]12CN(C)CCN1c1nc(-n3ccnc3-c3ccccc3)ncc1N(C)C2=O [Example 375, (R)-6a-ethyl-5,8-dimethyl-2-(2-phenyl-1H-imidazol-1-yl)-7,8,9,10-tetrahydro-5H-pyrazino[2,1-h]pteridin-6(6aH)-one]
> 6.00 | 5.00 to 6.00 | > 6.00 | more active compound | CC[C@@H]1C(=O)N(C)c2cnc(-n3ccnc3-c3ccccc3)nc2N1c1cnn(C)c1 [Example 409, (R)-7-ethyl-5-methyl-8-(1-methyl-1H-pyrazol-4-yl)-2-(2-phenyl-1H-imidazol-1-yl)-7,8-dihydropteridin-6(5H)-one]
< 4.30 | < 4.30 | < 4.30 |  | CC[C@]12COCCN1c1nc(-c3snnc3-c3ccc(F)cc3F)ncc1N(C)C2=O [Example 398, (R)-2-(4-(2,4-difluorophenyl)-1,2,3-thiadiazol-5-yl)-6a-ethyl-5-methyl-6a,7,9,10-tetrahydro-[1,4]oxazino[3,4-h]pteridin-6(5H)-one]
4.30 to 5.00 | 5.00 to 6.00 | > 6.00 | more active compound | CC[C@@]12COCCN1c1nc(-c3cn[nH]c3-c3ccc(F)cc3F)ncc1N(C)C2=O [Example 411, (S)-2-(5-(2,4-difluorophenyl)-1H-pyrazol-4-yl)-6a-ethyl-5-methyl-6a,7,9,10-tetrahydro-[1,4]oxazino[3,4-h]pteridin-6(5H)-one]
< 4.30 | < 4.30 | 5.00 to 6.00 |  | CC[C@H]1C(=O)N(C)c2cnc(-n3ccnc3-c3ccc(F)cc3)nc2N1c1ccn(C)n1 [Example 408, (S)-7-ethyl-2-(2-(4-fluorophenyl)-1H-imidazol-1-yl)-5-methyl-8-(1-methyl-1H-pyrazol-3-yl)-7,8-dihydropteridin-6(5H)-one]
4.30 to 5.00 | 5.00 to 6.00 | 5.00 to 6.00 |  | CC[C@@]12COCCN1c1nc(-c3[nH]nnc3-c3ccccc3)ncc1N(C)C2=O [Example 373, (S)-6a-ethyl-5-methyl-2-(4-phenyl-1H-1,2,3-triazol-5-yl)-6a,7,9,10-tetrahydro-[1,4]oxazino[3,4-h]pteridin-6(5H)-one]
5.00 to 6.00 | 5.00 to 6.00 | > 6.00 | more active compound | CC[C@@H]1C(=O)N(C)c2cnc(-n3ccnc3-c3ccc(F)cc3)nc2N1c1ccn(C)n1 [Example 407, (R)-7-ethyl-2-(2-(4-fluorophenyl)-1H-imidazol-1-yl)-5-methyl-8-(1-methyl-1H-pyrazol-3-yl)-7,8-dihydropteridin-6(5H)-one]
< 4.30 | < 4.30 | > 6.00 |  | CCC12CN(C)CCN1c1nc(-n3ccnc3-c3ccccc3)ncc1N(C)C2=O (racemic) [Example 371, 6a-ethyl-5,8-dimethyl-2-(2-phenyl-1H-imidazol-1-yl)-7,8,9,10-tetrahydro-5H-pyrazino[2,1-h]pteridin-6(6aH)-one]
< 4.30 | < 4.30 | < 4.30 |  | CC[C@]12COCCN1c1nc(-c3snnc3-c3ccccc3)ncc1N(C)C2=O [Example 369, (R)-6a-ethyl-5-methyl-2-(4-phenyl-1,2,3-thiadiazol-5-yl)-6a,7,9,10-tetrahydro-[1,4]oxazino[3,4-h]pteridin-6(5H)-one]

From patent US8445503B2, “Inhibitors of polo-like kinase” (Elan Pharmaceuticals, Inc., priority 2009, dated 2013)
